Converted amounts (≈) assume the structure as drawn. Numbered stars: 1 amine (or outer) side, 2 acyl side, 3 side chain; on linkers, the order of the positions; unused ones are H or OH. Square brackets hold non-standard residues; d marks the D form. Peptide text beside a SMILES is read from it. ξ: configuration not given here. X1 = N=C1NCC(C(O)C(N[*:1])C(=O)[*:2])N1C1OC(CO)C(O)C(O)C1O; ξEnduracididine(βξ-OH,4'ξ) = N=C1NCC(C(O)C(N)C(=O)O)N1
Columns and labels:
Assay in all cases: In vitro antibacterial evaluation: minimum inhibitory concentration (MIC), broth dilution method
Type in all cases: cell-based
[1] = tested on: Enterococcus sp.
Method in brief: (§1)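 Using Muller-Hinton II […] and an inoculum of 5×10^5 CFU/mL, antibiotic dilutions from 64 down to 0.06 μg/mL were tested following NCCLS M7-A2. The MIC is the lowest concentration inhibiting growth, including in methicillin-, penicillin- or vancomycin-resistant clinical isolates.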

[2] = tested on: Escherichia coli
Method in brief: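 NCCLS M7-A2 broth dilution with Mueller-Hinton II, testing 64-0.06 μg/mL antibiotic against 5×10^5 CFU/mL inocula. Test strains include recent methicillin-, penicillin- or vancomycin-resistant clinical isolates. MIC is the lowest concentration preventing growth.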

[3] = tested on: Staphylococcus sp.; conditions: 18 hours at 35° C.
Method in brief: as §1

[4] = tested on: Streptococcus sp.; conditions: 18 hours at 35° C.
Method in brief: as §1

[5] = tested on: Escherichia coli; remark: listed apart in the source

Compound: CC(c1ccccc1)C1NC(=O)CNC(=O)C(CO)NC(=O)C(C(O)C2CNC(=N)N2C2OC(CO)C(O)C(O)C2O)NC(=O)C(C(O)C2CNC(=N)N2)NC(=O)C(Cc2ccc(OC3OC(CO)C(OC4OC(COC(=O)NCc5ccccc5)C(O)C(O)C4O)C(O)C3O)cc2)NC1=O (stereo not drawn) [Example 257b, γ-O-[(Benzylamino)carbonyl]-cyclo[glycyl-β-methylphenylalanyl-O-(4-O-hexopyranosylhexopyranosyl)tyrosyl-3-(2-iminoimidazolidin-4-yl)seryl-3-(3-hexopyranosyl-2-iminoimidazolidin-4-yl)serylseryl]]
- MIC Enterococcus avium (GC 4558) [1]: 0.5 µg/mL (≈ 0.35 µM)
- MIC Enterococcus faecalis (ATCC 29212) [1]: 0.5 µg/mL (≈ 0.35 µM)
- MIC Enterococcus faecalis (GC 2242) ([1]; Enterococcus faecalis (GC 2242), 18 hours at 35° C.): 0.5 µg/mL (≈ 0.35 µM)
- MIC Enterococcus faecalis (GC 2691) ([1]; Enterococcus faecalis (GC 2691), 18 hours at 35° C.): 0.5 µg/mL (≈ 0.35 µM)
- MIC Enterococcus faecalis (GC 3059) ([1]; Enterococcus faecalis (GC 3059), 18 hours at 35° C.): 0.5 µg/mL (≈ 0.35 µM)
- MIC Enterococcus faecalis (GC 4552) ([1]; Enterococcus faecalis (GC 4552), 18 hours at 35° C.): >0.5 µg/mL
- MIC Enterococcus faecalis (GC 4553) [1]: 0.5 µg/mL (≈ 0.35 µM)
- MIC Enterococcus faecalis (GC 4554) [1]: >0.5 µg/mL
- MIC Enterococcus faecalis (GC 6189) [1]: 0.5 µg/mL (≈ 0.35 µM)
- MIC Enterococcus faecium (GC 2243) [1]: 16 µg/mL (≈ 11.2 µM)
- MIC Enterococcus faecium (GC 4556) [1]: 16 µg/mL (≈ 11.2 µM)
- MIC Enterococcus faecium (GC 4557) [1]: 2 µg/mL (≈ 1.4 µM)
- MIC Escherichia coli (GC 4559) [2]: >0.5 µg/mL
- MIC Escherichia coli (GC 4560) [2]: 0.5 µg/mL (≈ 0.35 µM)
- MIC Coagulase Negative Staphylococcus (GC 4547) [3]: 2 µg/mL (≈ 1.4 µM)
- MIC Coagulase Negative Staphylococcus (GC 4548) [3]: 2 µg/mL (≈ 1.4 µM)
- MIC Coagulase Negative Staphylococcus (GC 4549) [3]: 2 µg/mL (≈ 1.4 µM)
- MIC Coagulase Negative Staphylococcus (GC 4551) [3]: 4 µg/mL (≈ 2.8 µM)
- MIC Coagulase Negative Staphylococcus (GC 6257) [3]: 1 µg/mL (≈ 0.7 µM)
- MIC Staphylococcus aureus (ATCC 29213) [3]: 0.5 µg/mL (≈ 0.35 µM)
- MIC Staphylococcus aureus (GC 1131) [3]: 0.5 µg/mL (≈ 0.35 µM)
- MIC Staphylococcus aureus (GC 3051) [3]: 0.5 µg/mL (≈ 0.35 µM)
- MIC Staphylococcus aureus (GC 3053) [3]: 0.5 µg/mL (≈ 0.35 µM)
- MIC Staphylococcus aureus (GC 4541) [3]: 0.5 µg/mL (≈ 0.35 µM)
- MIC Staphylococcus aureus (GC 4542) [3]: 0.5 µg/mL (≈ 0.35 µM)
- MIC Staphylococcus aureus (GC 4544) [3]: 0.5 µg/mL (≈ 0.35 µM)
- MIC Staphylococcus aureus (GC 4545) [3]: 0.5 µg/mL (≈ 0.35 µM)
- MIC Staphylococcus aureus-SMITH (GC 4543) [3]: 0.5 µg/mL (≈ 0.35 µM)
- MIC Staphylococcus haemolyticus (GC 4546) [3]: 2 µg/mL (≈ 1.4 µM)
- MIC Streptococcus agalactiae (GC 4564) ([4]; Streptococcus agalactiae (GC 4564)): 1 µg/mL (≈ 0.7 µM)
- MIC Streptococcus pneumoniae (ATCC 6301) ([4]; Streptococcus pneumoniae (ATCC 6301)): 0.25 µg/mL (≈ 0.175 µM)
- MIC Streptococcus pneumoniae (GC 1894) ([4]; Streptococcus pneumoniae (GC 1894)): 0.25 µg/mL (≈ 0.175 µM)
- MIC Streptococcus pneumoniae (GC 4565) ([4]; Streptococcus pneumoniae (GC 4565)): 0.5 µg/mL (≈ 0.35 µM)
- MIC Streptococcus pyogenes (GC 4563) ([4]; Streptococcus pyogenes (GC 4563)): 0.12 µg/mL (≈ 0.084 µM)
- MIC Escherichia coli (ATCC 25922) [5]: >0.5 µg/mL

Compound: N=C1NCC(C(O)C2NC(=O)C(Cc3ccc(O)cc3)NC(=O)C(Cc3ccccc3)NC(=O)CNC(=O)C(CO)NC(=O)C(C(O)C3CNC(=N)N3C3OC(CO)C(O)C(O)C3O)NC2=O)N1 (stereo not drawn) [Example 279a, Cyclo[glycylphenylalanyltyrosyl-3-(2-iminoimidazolidin-4-yl)seryl-3-(3-hexopyranosyl-2-iminoimidazolidin-4-yl)serylseryl]] (cyclo(GFY[ξEnduracididine(βξ-OH,4'ξ)][X1]S); configuration not given here)
- MIC Enterococcus avium (GC 4558) [1]: >64 µg/mL
- MIC Enterococcus faecalis (ATCC 29212) [1]: >64 µg/mL
- MIC Enterococcus faecalis (GC 4553) [1]: >64 µg/mL
- MIC Enterococcus faecalis (GC 4554) [1]: >64 µg/mL
- MIC Enterococcus faecalis (GC 6189) [1]: >64 µg/mL
- MIC Enterococcus faecium (GC 2243) [1]: >64 µg/mL
- MIC Enterococcus faecium (GC 4556) [1]: >64 µg/mL
- MIC Enterococcus faecium (GC 4557) [1]: 64 µg/mL (≈ 66.9 µM)
- MIC Escherichia coli (GC 4559) [2]: 64 µg/mL (≈ 66.9 µM)
- MIC Escherichia coli (GC 4560) [2]: 32 µg/mL (≈ 33.4 µM)
- MIC Coagulase Negative Staphylococcus (GC 4547) [3]: 64 µg/mL (≈ 66.9 µM)
- MIC Coagulase Negative Staphylococcus (GC 4547) ([3]; broth dilution): 64 µg/mL (≈ 66.9 µM)
- MIC Coagulase Negative Staphylococcus (GC 4548) [3]: >64 µg/mL
- MIC Coagulase Negative Staphylococcus (GC 4548) ([3]; broth dilution): >64 µg/mL
- MIC Coagulase Negative Staphylococcus (GC 4549) [3]: 64 µg/mL (≈ 66.9 µM)
- MIC Coagulase Negative Staphylococcus (GC 4549) ([3]; broth dilution): 64 µg/mL (≈ 66.9 µM)
- MIC Coagulase Negative Staphylococcus (GC 4551) [3]: >64 µg/mL
- MIC Coagulase Negative Staphylococcus (GC 4551) ([3]; broth dilution): >64 µg/mL
- MIC Coagulase Negative Staphylococcus (GC 6257) [3]: 64 µg/mL (≈ 66.9 µM)
- MIC Coagulase Negative Staphylococcus (GC 6257) ([3]; broth dilution): 64 µg/mL (≈ 66.9 µM)
- MIC Staphylococcus aureus (ATCC 29213) [3]: >64 µg/mL
- MIC Staphylococcus aureus (ATCC 29213) ([3]; broth dilution): >64 µg/mL
- MIC Staphylococcus aureus (GC 1131) [3]: >64 µg/mL
- MIC Staphylococcus aureus (GC 1131) ([3]; broth dilution): >64 µg/mL
- MIC Staphylococcus aureus (GC 3051) [3]: >64 µg/mL
- MIC Staphylococcus aureus (GC 3051) ([3]; broth dilution): >64 µg/mL
- MIC Staphylococcus aureus (GC 3053) [3]: >64 µg/mL
- MIC Staphylococcus aureus (GC 3053) ([3]; broth dilution): >64 µg/mL
- MIC Staphylococcus aureus (GC 4541) [3]: >64 µg/mL
- MIC Staphylococcus aureus (GC 4541) ([3]; broth dilution): >64 µg/mL
- MIC Staphylococcus aureus (GC 4542) [3]: >64 µg/mL
- MIC Staphylococcus aureus (GC 4542) ([3]; broth dilution): >64 µg/mL
- MIC Staphylococcus aureus (GC 4544) [3]: >64 µg/mL
- MIC Staphylococcus aureus (GC 4544) ([3]; broth dilution): >64 µg/mL
- MIC Staphylococcus aureus (GC 4545) [3]: >64 µg/mL
- MIC Staphylococcus aureus (GC 4545) ([3]; broth dilution): >64 µg/mL
- MIC Staphylococcus aureus-SMITH (GC 4543) [3]: >64 µg/mL
- MIC Staphylococcus aureus-SMITH (GC 4543) ([3]; broth dilution): >64 µg/mL
- MIC Staphylococcus haemolyticus (GC 4546) [3]: 64 µg/mL (≈ 66.9 µM)
- MIC Staphylococcus haemolyticus (GC 4546) ([3]; broth dilution): 64 µg/mL (≈ 66.9 µM)
- MIC Escherichia coli (ATCC 25922) [5]: 64 µg/mL (≈ 66.9 µM)

Reference: patent publication US8247211B2, “Glycopeptide antibiotics” (American Cyanamid Company, priority 2001, dated 2012)
